# Experimental data from patent US12065434B2, “Metabolites of GLP1R agonists” (Pfizer Inc., priority 2020, dated 2024).
# How the values were obtained:
# [1] = Metabolite profiling of pooled human plasma after repeat oral dosing of Compound 1 (HPLC/UV/MS); details: for Plasma Extracts: Compound 1 120 mg oral BID, Day 28, HPLC/UV/MS; for observed as major or minor metabolite in human plasma: Compound 1 120 mg BID, Day 28
# rat hepatocytes = assay: In vitro metabolism of Compound 2 in rat cryopreserved hepatocytes; format: in vitro ADME; design: key to Relative abundance of metabolite of Compound 2, Rat: ND Not detected.; trace: Trace: observed by HPLC/MS measurements only.; + Minor as assessed by HPLC/UV measurements; ++ moderate as assessed by HPLC/UV measurements; +++ major as assessed by HPLC/UV measurements.; * m/z 593 and m/z 505 co-eluted in rabbit hepatocytes.; ** m/z 591 c and m/z 593 were merged in human hepatocytes and Hepatopack.; *** m/z 607 and m/z 751 b were merged in rabbit hepatocytes; details: for metabolite of Compound 2 observed in rat hepatocyte incubations: 10 μM Compound 2, 7.5×10^5 cells/mL, 1 and 4 hrs composite; for Relative abundance of metabolite of Compound 2, Rat: rat cryopreserved hepatocytes, HPLC/UV/MS
# Experimental: (§1) Male CD-1 mouse hepatocytes (lot YHL), male Wistar-Han rat hepatocytes (Celsius; product number: M000065; lot: SLA), female New Zealand rabbit hepatocytes (lot 1510147), male cryopreserved cynomolgus monkey hepatocytes (Celsius; product number: M00305; lot: DNB) and mixed-gender cryopreserved human hepatocytes (Bioreclamation; product number: S01988; lot: DCM) were obtained for the hepatocyte in-vitro assessments.
# (§2) At time 0 hrs 550 μL aliquots were removed from incubations and quenched with 5 volumes of ACN containing 0.1% formic acid. At 1 and 4 hrs, 275 μL aliquots were removed and quenched as above; these were combined in the same tube to prepare a composite sample. For all hepatocyte experiments, samples were processed by centrifugation at 1900×g for 5 minutes, and then the supernatant was transferred to clean glass tubes and evaporated to dryness under a stream of N2 using a Turbovap at 37° C. Sample residues were reconstituted in mobile phase prior to analysis by HPLC/UV/MS^n.
# (§3) Samples were analyzed by HPLC/UV/MS^n using a Thermo Orbitrap Elite mass spectrometer in conjunction with a Thermo Open Accela UHPLC system. A 3.0×150 mm, 2.5 μm Acquity CSH C18 HPLC column (Waters) was heated to 45° C. for separation of analytes. The mobile phase was a gradient of A): water containing 0.1% formic acid, and B): acetonitrile. The flow rate was 450 μL/min, and the following gradient program was utilized: […]
# (§4) UV absorbance was monitored with a photo-diode array detector from 220-450 nm. The mass spectrometer was operated in positive-ion mode with a HESI ion source at a potential of 3.0 kV, and capillary and source heater temperatures of 380 and 300° C., respectively. Sheath, auxiliary, and sweep gas flows were set to 45, 10, and 2 units, respectively. Full scan mass spectra were acquired over the range 120-1200 m/z at a resolving power of 30,000 (specified at m/z 400). Data-dependent MS^n spectra were acquired in an automated fashion at 15,000 resolving power using CID and HCD fragmentation with normalized collision energy settings of 28 and 65 V, respectively.
# (§5) Metabolites were characterized by comparisons of mass spectral fragmentation patterns with that of a Compound 2 standard. All HPLC/UV/MS^n data were processed using Xcalibur v. 2.2, and integrated UV peak areas were subjected to weighted UV binning procedures utilizing an Excel template.
# monkey hepatocytes = assay: In vitro metabolism of Compound 2 in monkey cryopreserved hepatocytes; format: in vitro ADME, cynomolgus monkey; design: key to Relative abundance of metabolite of Compound 2, Monkey: ND Not detected.; trace: Trace: observed by HPLC/MS measurements only.; + Minor as assessed by HPLC/UV measurements; ++ moderate as assessed by HPLC/UV measurements; +++ major as assessed by HPLC/UV measurements.; * m/z 593 and m/z 505 co-eluted in rabbit hepatocytes.; ** m/z 591 c and m/z 593 were merged in human hepatocytes and Hepatopack.; *** m/z 607 and m/z 751 b were merged in rabbit hepatocytes; details: for metabolite of Compound 2 observed in monkey hepatocyte incubations: 10 μM Compound 2, 7.5×10^5 cells/mL, 1 and 4 hrs composite
# Experimental: as §1, §2, §3, §4, §5
# human hepatocytes = assay: In vitro metabolism of Compound 2 in human cryopreserved hepatocytes; format: in vitro ADME; design: key to Relative abundance of metabolite of Compound 2, Human: ND Not detected.; trace: Trace: observed by HPLC/MS measurements only.; + Minor as assessed by HPLC/UV measurements; ++ moderate as assessed by HPLC/UV measurements; +++ major as assessed by HPLC/UV measurements.; * m/z 593 and m/z 505 co-eluted in rabbit hepatocytes.; ** m/z 591 c and m/z 593 were merged in human hepatocytes and Hepatopack.; *** m/z 607 and m/z 751 b were merged in rabbit hepatocytes; details: for metabolite of Compound 2 observed in human hepatocyte incubations: 10 μM Compound 2, 7.5×10^5 cells/mL, 1 and 4 hrs composite
# Experimental: as §1, §2, §3, §4, §5
# mouse hepatocytes = assay: In vitro metabolism of Compound 2 in mouse cryopreserved hepatocytes; format: in vitro ADME; design: key to Relative abundance of metabolite of Compound 2, Mouse: ND Not detected.; trace: Trace: observed by HPLC/MS measurements only.; + Minor as assessed by HPLC/UV measurements; ++ moderate as assessed by HPLC/UV measurements; +++ major as assessed by HPLC/UV measurements.; * m/z 593 and m/z 505 co-eluted in rabbit hepatocytes.; ** m/z 591 c and m/z 593 were merged in human hepatocytes and Hepatopack.; *** m/z 607 and m/z 751 b were merged in rabbit hepatocytes; details: for metabolite of Compound 2 observed in mouse hepatocyte incubations: 10 μM Compound 2, 7.5×10^5 cells/mL, 1 and 4 hrs composite
# Experimental: as §1, §2, §3, §4, §5
# rabbit hepatocytes = assay: In vitro metabolism of Compound 2 in rabbit cryopreserved hepatocytes; format: in vitro ADME; design: key to Relative abundance of metabolite of Compound 2, Rabbit: ND Not detected.; trace: Trace: observed by HPLC/MS measurements only.; + Minor as assessed by HPLC/UV measurements; ++ moderate as assessed by HPLC/UV measurements; +++ major as assessed by HPLC/UV measurements.; * m/z 593 and m/z 505 co-eluted in rabbit hepatocytes.; ** m/z 591 c and m/z 593 were merged in human hepatocytes and Hepatopack.; *** m/z 607 and m/z 751 b were merged in rabbit hepatocytes; details: for metabolite of Compound 2 observed in rabbit hepatocyte incubations: 10 μM Compound 2, 7.5×10^5 cells/mL, 1 and 4 hrs composite
# Experimental: as §1, §2, §3, §4, §5
SMILES,Plasma Extracts [1],observed as major or minor metabolite in human plasma [1],metabolite of Compound 2 observed in rat hepatocyte incubations (rat hepatocytes),metabolite of Compound 2 observed in monkey hepatocyte incubations (monkey hepatocytes),metabolite of Compound 2 observed in human hepatocyte incubations (human hepatocytes),metabolite of Compound 2 observed in mouse hepatocyte incubations (mouse hepatocytes),metabolite of Compound 2 observed in rabbit hepatocyte incubations (rabbit hepatocytes),also measured
"N#Cc1ccc(COc2cccc(C3CCN(Cc4nc5ccc(C(=O)O)cc5n4C[C@@H]4CCO4)CC3)n2)c(F)c1 [Compound 1, 2-[(4-{6-[(4-Cyano-2-fluorobenzyl)oxy]pyridin-2-yl}piperidin-1-yl)methyl]-1-[(2S)-oxetan-2-ylmethyl]-1H-benzimidazole-6-carboxylic acid]",+++,,,,,,,
"N#Cc1ccc(COc2cccc(C(CCO)CCNCc3nc4ccc(C(=O)O)cc4n3C[C@@H]3CCO3)n2)c(F)c1 (stereo partly drawn) [Compound 574a, 2-(((3-(6-((4-cyano-2-fluorobenzyl)oxy)pyridin-2-yl)-5-hydroxypentyl)amino)methyl)-1-(((S)-oxetan-2-yl)methyl)-1H-benzo[d]imidazole-6-carboxylic acid]",+,minor metabolite,,,,,,
"N#Cc1ccc(COc2cccc(C3CCN(Cc4nc5ccc(C(=O)O)cc5n4CC(O)CCO)CC3)n2)c(F)c1 (stereo not drawn) [Compound 574b, 2-((4-(6-((4-cyano-2-fluorobenzyl)oxy)pyridin-2-yl)piperidin-1-yl)methyl)-1-(2,4-dihydroxybutyl)-1H-benzo[d]imidazole-6-carboxylic acid]",+,minor metabolite,,,,,,
"N#Cc1ccc(COc2cccc(C3CCNCC3)n2)c(F)c1 [Compound M3, 3-fluoro-4-(((6-(piperidin-4-yl)pyridin-2-yl)oxy)methyl)benzonitrile]",+,minor metabolite,,,,,,
"N#Cc1ccc(COc2cccc(C3(O)CCN(Cc4nc5ccc(C(=O)O)cc5n4C[C@@H]4CCO4)CC3)n2)c(F)c1 [Compound M4, (S)-2-((4-(6-((4-cyano-2-fluorobenzyl)oxy)pyridin-2-yl)-4-hydroxypiperidin-1-yl)methyl)-1-(oxetan-2-ylmethyl)-1H-benzo[d]imidazole-6-carboxylic acid]",+,,,,,,,
C[C@]1(c2ccc(Cl)cn2)Oc2cccc(C3=CCN(Cc4nc5ccc(C(=O)O)cc5n4C[C@@H]4CCO4)CC3)c2O1 [Metabolite 573a],,,low-level metabolite,low-level metabolite,low-level metabolite,low-level metabolite,low-level metabolite,

# More lines, main results first:
Plasma Extracts [1],observed as major or minor metabolite in human plasma [1],metabolite of Compound 2 observed in rat hepatocyte incubations (rat hepatocytes),metabolite of Compound 2 observed in monkey hepatocyte incubations (monkey hepatocytes),metabolite of Compound 2 observed in human hepatocyte incubations (human hepatocytes),metabolite of Compound 2 observed in mouse hepatocyte incubations (mouse hepatocytes),metabolite of Compound 2 observed in rabbit hepatocyte incubations (rabbit hepatocytes),SMILES,also measured
,,trace metabolite,trace metabolite,trace metabolite,,,"O=C(O)c1ccc2nc(CN3CCC(c4cccc(O)c4O)CC3)n(C[C@@H]3CCO3)c2c1 [Metabolite 438, (S)-2-((4-(2,3-dihydroxyphenyl)piperidin-1-yl)methyl)-1-(oxetan-2-ylmethyl)-1H-benzo[d]imidazole-6-carboxylic acid]","Relative abundance of metabolite of Compound 2, Rat (rat hepatocytes): trace; Relative abundance of metabolite of Compound 2, Monkey (monkey hepatocytes; monkey cryopreserved hepatocytes, HPLC/UV/MS): trace; Relative abundance of metabolite of Compound 2, Human (human hepatocytes; human cryopreserved hepatocytes, HPLC/UV/MS): trace"
,,observed,,,observed,observed,"C[C@]1(c2ccc(Cl)cn2)Oc2cccc(C3CCN(Cc4nc5ccc(C(=O)O)cc5[nH]4)CC3)c2O1 [Metabolite 505, (S)-2-((4-(2-(5-chloropyridin-2-yl)-2-methylbenzo[d][1,3]dioxol-4-yl)piperidin-1-yl)methyl)-1H-benzo[d]imidazole-6-carboxylic acid]","Relative abundance of metabolite of Compound 2, Mouse (mouse hepatocytes; mouse cryopreserved hepatocytes, HPLC/UV/MS): trace; Relative abundance of metabolite of Compound 2, Rat (rat hepatocytes): trace; Relative abundance of metabolite of Compound 2, Rabbit (rabbit hepatocytes; rabbit cryopreserved hepatocytes, HPLC/UV/MS): *"
,,observed in all hepatocyte incubations,observed in all hepatocyte incubations,observed in all hepatocyte incubations,observed in all hepatocyte incubations,observed in all hepatocyte incubations,C[C@]1(c2ccc(Cl)cn2)Oc2cccc(C3CC[N+]([O-])(Cc4nc5ccc(C(=O)O)cc5n4C[C@@H]4CCO4)CC3)c2O1 (stereo partly drawn) [Metabolite 591d],
